Test results published in ChEMBL document CHEMBL1131393, “C32-O-imidazol-2-yl-methyl ether derivatives of the immunosuppressant ascomycin with improved therapeutic potential” (Bioorg Med Chem Lett, 1998).

Tests used:
[1] = molecular target: Peptidyl-prolyl cis-trans isomerase FKBP1A (Homo sapiens, UniProt P62942); experiment: Binding affinity for FK506 binding protein 12 using [3H]-dihydro FK-506 radioligand was determined
[2] = tested on: Rattus norvegicus; experiment: Nephrotoxic potential was tested in spontaneously hypertensive rats by administering 0 mg/kg/day intraperitoneally for 5 days; format: functional; conditions: route intraperitoneal
[3] = tested on: Rattus norvegicus; experiment: Nephrotoxic potential was tested in spontaneously hypertensive rats by administering 10 mg/kg/day intraperitoneally for 5 days; format: functional; conditions: route intraperitoneal
[4] = tested on: Mus musculus; experiment: Neurotoxic activity was determined by measuring compound-induced hypothermia in BALB/c mice, after administering intravenously in mouse.; format: functional; conditions: iv
[5] = tested on: Mus musculus; experiment: Immunosuppressive activity was determined by ex vivo murine-based model of immunosuppression, compound was administered perorally in mouse.; format: functional; conditions: po
[6] = Therapeutic index was determined as mouse hypothermia ED50/murine ex vivo ED50; conditions: read-out: Therapeutic index
[7] = tested on: Mus musculus; experiment: Immunosuppressive activity was determined by ex vivo murine-based model of immunosuppression, compound was administered intravenously in mouse.; format: functional; conditions: iv
[8] = tested on: Rattus norvegicus; experiment: Nephrotoxic potential was tested in spontaneously hypertensive rats by administering 40 mg/kg/day intraperitoneally for 5 days; format: functional; conditions: route intraperitoneal
[9] = tested on: Rattus norvegicus; experiment: Nephrotoxic potential was tested in spontaneously hypertensive rats by administering 20 mg/kg/day intraperitoneally for 5 days; format: functional; conditions: route intraperitoneal

Chain of Peptidyl-prolyl cis-trans isomerase FKBP1A (P62942 whole entry): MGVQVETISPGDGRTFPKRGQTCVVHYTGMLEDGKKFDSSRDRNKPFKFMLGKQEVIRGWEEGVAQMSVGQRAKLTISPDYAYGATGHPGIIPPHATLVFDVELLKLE

`CC[C@@H]1/C=C(\C)C[C@H](C)C[C@H](OC)[C@H]2O[C@@](O)(C(=O)C(=O)N3CCCC[C@H]3C(=O)O[C@H](/C(C)=C/[C@@H]3CC[C@@H](OC/C=C/c4ccccc4)[C@H](OC)C3)[C@H](C)[C@@H](O)CC1=O)[C@H](C)C[C@@H]2OC` showed an EC50 [1] of 30 nM.
In the case of `CC[C@@H]1/C=C(\C)C[C@H](C)C[C@H](OC)[C@H]2O[C@@](O)(C(=O)C(=O)N3CCCC[C@H]3C(=O)O[C@H](/C(C)=C/[C@@H]3CC[C@@H](OCc4nc(-c5ccccc5)c[nH]4)[C@H](OC)C3)[C@H](C)[C@@H](O)CC1=O)[C@H](C)C[C@@H]2OC`, the EC50 [1] is reported as 22 nM.
Work on `CC[C@@H]1/C=C(\C)C[C@H](C)C[C@H](OC)[C@H]2O[C@@](O)(C(=O)C(=O)N3CCCC[C@H]3C(=O)O[C@H](/C(C)=C/[C@@H]3CC[C@@H](OCc4nccn4Cc4ccccc4)[C@H](OC)C3)[C@H](C)[C@@H](O)CC1=O)[C@H](C)C[C@@H]2OC` yielded an EC50 [1] of 7.4 nM.
`C=CC[C@@H]1/C=C(\C)C[C@H](C)C[C@H](OC)[C@H]2O[C@@](O)(C(=O)C(=O)N3CCCC[C@H]3C(=O)O[C@H](/C(C)=C/[C@@H]3CC[C@@H](O)[C@H](OC)C3)[C@H](C)[C@@H](O)CC1=O)[C@H](C)C[C@@H]2OC` [TACROLIMUS ANHYDROUS] showed a BUN [2] of 20 mg/dL, a BUN [3] of 22 mg/dL and an ED50 [4] of 3.5 mg/kg. The ED50 [5] was 2.6 mg/kg, the selectivity ratio [6] was 15 and the ED50 [7] was 0.24 mg/kg. The BUN [8] was 76 mg/dL and the BUN [9] was 43 mg/dL.
`CC[C@@H]1/C=C(\C)C[C@H](C)C[C@H](OC)[C@H]2O[C@@](O)(C(=O)C(=O)N3CCCC[C@H]3C(=O)O[C@H](/C(C)=C/[C@@H]3CC[C@@H](OCOCc4ccccc4)[C@H](OC)C3)[C@H](C)[C@@H](O)CC1=O)[C@H](C)C[C@@H]2OC` gave an EC50 [1] of 12 nM.
